Data reported in the SangsterLogP compilation.

Test: method code SF-AS, from DOI: 10.1002/jps.2600771105, PMID: 3225751
Settings: pH 1.0

Compound | logD
CC(C)(C)C1(C)C(=O)NC(=O)NC1=O | 0.8
CCC1(C(C)(C)C)C(=O)NC(=O)NC1=O | 1.38
CC(C)C1(C)C(=O)NC(=O)NC1=O | 0.54
CCCC1(CCC)C(=O)NC(=O)NC1=O | 1.75
C=CCC1(C(C)(C)C)C(=O)NC(=O)NC1=O | 1.64
CCCC1(CCC)C(=O)NC(=S)NC1=O | 2.66
CCC1(CC)C(=O)NC(=S)NC1=O | 1.5
CC(C)C1C(=O)NC(=O)NC1=O | -0.02
CCCCC1(CC)C(=O)NC(=O)NC1=O | 1.73
CCCCC1(CCCC)C(=O)NC(=O)NC1=O | 2.7
CC(C)(C)C1C(=O)NC(=O)NC1=O | 0.28
CC(C)C1(C(C)C)C(=O)NC(=O)NC1=O | 1.56
CC1(C)C(=O)NC(=S)NC1=O | 0.5
CC(C)(C)C1(Cl)C(=O)NC(=O)NC1=O | 0.82
